{"source": "patent US20260207560A1", "about": "“PLURALITY OF GRANULES” (priority 2022, published 2026)", "assay": "Stability of active ingredient in volatile solvents, 20-28 hours at ambient (UPLC assay and impurities)", "details": "for Assay (as % of nominal): vial replicates", "experimental": "Note the incubation for the stability studies were all performed in a similar way: • All were put into 4 mL amber glass vials. • The Initial samples were not analysed as soon as sampled but instead were frozen at −20° C. until the point of analysing the incubated samples (e.g after 28 days at 25, 40 or 50° C.) to avoid degradation of the active ingredient.\nChemical stability was determined by assay (results in Table 8) and quantification of potential active ingredient related substances (shown in\nTable 9). […] The objective was to establish whether any active ingredient-related substances might be increasing as a result of the ambient hold.", "key": {"[1]": {"details": "0.1 M HCl, 24 hour, listed as active ingredient"}, "[2]": {"details": "0.1 M HCl, Initial, listed as active ingredient"}, "[3]": {"details": "5% SLS aq., 24 hour, listed as active ingredient"}, "[4]": {"details": "5% SLS aq., Initial, listed as active ingredient"}}, "note": "Several values for one entry are separate records, joined by “and”; a condition that tells them apart may be missing. Identical values can stand only once.", "data": [{"smiles": "CCS(=O)(=O)Nc1ccc2c(c1)nc(C(C)(C)C)n2CC1CCC(F)(F)CC1", "note": "[Compound I, N-(2-(tert-butyl)-1-((4,4-difluorocyclohexyl)methyl)-1H-benzimidazol-5-yl)ethanesulfonamide]", "values": [{"measurement": "Impurity peak area, RRT 0.38", "setting": "0.1 M HCl, 24 hour", "value": "0.07 % of Total"}, {"measurement": "Impurity peak area, RRT 0.61", "setting": "0.1 M HCl, 24 hour", "value": "<0.05 % of Total"}, {"measurement": "Impurity peak area, RRT 0.83", "setting": "0.1 M HCl, 24 hour", "value": "0.11 % of Total"}, {"measurement": "Impurity peak area, RRT 0.85", "setting": "0.1 M HCl, 24 hour", "value": "0.07 % of Total"}, {"measurement": "Impurity peak area, RRT 0.92", "setting": "0.1 M HCl, 24 hour", "value": "0.09 % of Total"}, {"measurement": "Impurity peak area, RRT 0.62", "setting": "[1]", "value": "<0.05 % of Total and 0.05 % of Total"}, {"measurement": "Impurity peak area, RRT 0.84*", "setting": "[1]", "value": "0.27 % of Total and 0.34 % of Total"}, {"measurement": "Impurity peak area, RRT 0.86^$ (PDA spectra unrelated to the active ingredient)", "setting": "[1]", "value": "<0.05 % of Total and 0.05 % of Total"}, {"measurement": "Impurity peak area, RRT 0.98* (first row)", "setting": "[1]", "value": "0.24 % of Total and 0.22 % of Total"}, {"measurement": "Impurity peak area, RRT 0.98* (second row)", "setting": "[1]", "value": "0.12 % of Total and 0.13 % of Total"}, {"measurement": "Impurity peak area, RRT 1.04*", "setting": "[1]", "value": "0.05 % of Total and <0.05 % of Total"}, {"measurement": "Impurity peak area, RRT 1.23*", "setting": "[1]", "value": "0.16 % of Total and 0.15 % of Total"}, {"measurement": "Impurity peak area, RRT 1.24*", "setting": "[1]", "value": "<0.05 % of Total and 0.05 % of Total"}, {"measurement": "Impurity peak area, RRT 1.35*", "setting": "[1]", "value": "0.07 % of Total and 0.06 % of Total"}, {"measurement": "Impurity peak area, RRT 1.36*", "setting": "[1]", "value": "<0.05 % of Total and 0.05 % of Total"}, {"measurement": "Impurity peak area, Total", "setting": "[1]", "value": "1.00 % of Total and 1.44 % of Total"}, {"measurement": "Impurity peak area, Total excluding artifact", "setting": "[1]", "value": "1.00 % of Total and 1.16 % of Total"}, {"measurement": "Assay (as % of nominal), Mean", "setting": "0.1M HCl, 24 hours ambient", "value": "106.7 % of nominal"}, {"measurement": "Assay (as % of nominal)", "setting": "0.1M HCl, 24 hours ambient, listed as active ingredient", "value": "107.7 % of nominal and 105.4 % of nominal"}, {"measurement": "Assay (as % of nominal), Mean", "setting": "0.1 M HCl, Initial", "value": "114.4 % of nominal"}, {"measurement": "Impurity peak area, RRT 0.41", "setting": "0.1 M HCl, Initial", "value": "<0.05 % of Total"}, {"measurement": "Impurity peak area, RRT 0.98* (first row)", "setting": "0.1 M HCl, Initial", "value": "0.22 % of Total"}, {"measurement": "Impurity peak area, RRT 0.98* (second row)", "setting": "0.1 M HCl, Initial", "value": "0.12 % of Total"}, {"measurement": "Impurity peak area, RRT 1.04*", "setting": "0.1 M HCl, Initial", "value": "<0.05 % of Total"}, {"measurement": "Impurity peak area, RRT 1.24*", "setting": "0.1 M HCl, Initial", "value": "<0.05 % of Total"}, {"measurement": "Impurity peak area, RRT 0.38", "setting": "[2]", "value": "0.10 % of Total and 0.08 % of Total"}, {"measurement": "Impurity peak area, RRT 0.61", "setting": "[2]", "value": "0.13 % of Total and 0.08 % of Total"}, {"measurement": "Impurity peak area, RRT 0.62", "setting": "[2]", "value": "0.15 % of Total and 0.09 % of Total"}, {"measurement": "Impurity peak area, RRT 0.84*", "setting": "[2]", "value": "0.31 % of Total and 0.26 % of Total"}, {"measurement": "Impurity peak area, RRT 0.85", "setting": "[2]", "value": "<0.05 % of Total and 0.08 % of Total"}, {"measurement": "Impurity peak area, RRT 0.92", "setting": "[2]", "value": "0.18 % of Total and 0.14 % of Total"}, {"measurement": "Impurity peak area, RRT 1.23*", "setting": "[2]", "value": "0.22 % of Total and 0.23 % of Total"}, {"measurement": "Impurity peak area, RRT 1.35*", "setting": "[2]", "value": "0.05 % of Total and 0.06 % of Total"}, {"measurement": "Impurity peak area, RRT 1.36*", "setting": "[2]", "value": "0.05 % of Total and 0.06 % of Total"}, {"measurement": "Impurity peak area, Total", "setting": "[2]", "value": "2.00 % of Total and 1.47 % of Total"}, {"measurement": "Impurity peak area, Total excluding artifact", "setting": "[2]", "value": "1.15 % of Total and 1.17 % of Total"}, {"measurement": "Assay (as % of nominal)", "setting": "0.1M HCl, Initial, listed as active ingredient", "value": "100.6 % of nominal and 127.9 % of nominal"}, {"measurement": "Impurity peak area, RRT 0.41", "setting": "5% SLS aq., 24 hour", "value": "<0.05 % of Total"}, {"measurement": "Impurity peak area, RRT 0.62", "setting": "5% SLS aq., 24 hour", "value": "0.08 % of Total"}, {"measurement": "Impurity peak area, RRT 0.85", "setting": "5% SLS aq., 24 hour", "value": "NBD"}, {"measurement": "Impurity peak area, RRT 0.92", "setting": "5% SLS aq., 24 hour", "value": "0.05 % of Total"}, {"measurement": "Impurity peak area, RRT 0.98* (first row)", "setting": "5% SLS aq., 24 hour", "value": "0.24 % of Total"}, {"measurement": "Impurity peak area, RRT 1.04*", "setting": "5% SLS aq., 24 hour", "value": "0.06 % of Total"}, {"measurement": "Impurity peak area, RRT 1.24*", "setting": "5% SLS aq., 24 hour", "value": "<0.05 % of Total"}, {"measurement": "Impurity peak area, RRT 1.36*", "setting": "5% SLS aq., 24 hour", "value": "<0.05 % of Total"}, {"measurement": "Impurity peak area, RRT 0.38", "setting": "[3]", "value": "0.10 % of Total and 0.07 % of Total"}, {"measurement": "Impurity peak area, RRT 0.61", "setting": "[3]", "value": "0.07 % of Total and 0.06 % of Total"}, {"measurement": "Impurity peak area, RRT 0.83", "setting": "[3]", "value": "0.30 % of Total and 0.16 % of Total"}, {"measurement": "Impurity peak area, RRT 0.84*", "setting": "[3]", "value": "0.32 % of Total and 0.30 % of Total"}, {"measurement": "Impurity peak area, RRT 0.86^$ (PDA spectra unrelated to the active ingredient)", "setting": "[3]", "value": "0.05 % of Total and 0.07 % of Total"}, {"measurement": "Impurity peak area, RRT 0.98* (second row)", "setting": "[3]", "value": "0.13 % of Total and 0.12 % of Total"}, {"measurement": "Impurity peak area, RRT 1.23*", "setting": "[3]", "value": "0.06 % of Total and 0.07 % of Total"}, {"measurement": "Impurity peak area, RRT 1.35*", "setting": "[3]", "value": "0.07 % of Total and 0.06 % of Total"}, {"measurement": "Impurity peak area, Total", "setting": "[3]", "value": "1.53 % of Total and 1.34 % of Total"}, {"measurement": "Impurity peak area, Total excluding artifact", "setting": "[3]", "value": "0.93 % of Total and 0.90 % of Total"}, {"measurement": "Assay (as % of nominal), Mean", "setting": "5% SLS aq., 24 hours ambient", "value": "100.8 % of nominal"}, {"measurement": "Assay (as % of nominal)", "setting": "5% SLS aq., 24 hours ambient, listed as active ingredient", "value": "99.4 % of nominal and 102.3 % of nominal"}, {"measurement": "Assay (as % of nominal), Mean", "setting": "5% SLS aq., Initial", "value": "103.3 % of nominal"}, {"measurement": "Impurity peak area, RRT 0.84*", "setting": "5% SLS aq., Initial", "value": "0.32 % of Total"}, {"measurement": "Impurity peak area, RRT 0.86^$ (PDA spectra unrelated to the active ingredient)", "setting": "5% SLS aq., Initial", "value": "<0.05 % of Total"}, {"measurement": "Impurity peak area, RRT 0.98* (first row)", "setting": "5% SLS aq., Initial", "value": "0.24 % of Total"}, {"measurement": "Impurity peak area, RRT 0.98* (second row)", "setting": "5% SLS aq., Initial", "value": "0.12 % of Total"}, {"measurement": "Impurity peak area, RRT 1.24*", "setting": "5% SLS aq., Initial", "value": "<0.05 % of Total"}, {"measurement": "Impurity peak area, RRT 1.36*", "setting": "5% SLS aq., Initial", "value": "0.05 % of Total"}, {"measurement": "Impurity peak area, RRT 0.92", "setting": "[4]", "value": "0.05 % of Total and <0.05 % of Total"}, {"measurement": "Impurity peak area, RRT 1.04*", "setting": "[4]", "value": "0.05 % of Total and <0.05 % of Total"}, {"measurement": "Impurity peak area, RRT 1.23*", "setting": "[4]", "value": "0.06 % of Total and 0.07 % of Total"}, {"measurement": "Impurity peak area, RRT 1.35*", "setting": "[4]", "value": "0.07 % of Total and 0.08 % of Total"}, {"measurement": "Impurity peak area, Total", "setting": "[4]", "value": "0.96 % of Total and 0.88 % of Total"}]}]}
